Some results are limits rather than exact numbers.

Assay [1] relates to HOS (human osteogenic sarcoma). The experiment in a line: Calcein AM cytotoxicity assay, HOS. In kind it is cell-based. Conditions: 72 hours incubation. The method, boiled down: (§1)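 Cells pre-incubated 24 h at 37° C., 5% CO2, then exposed 72 h to compound at six 3-fold dilutions (top 166.7 μM), in triplicate. Calcein AM added to 1 μg/ml final; fluorescence read after 1 h. GI50 is the concentration giving 50% reduction of esterase activity, taken from dose-response curves.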

Assay [2] concerns K-562 (human erythroleukemia). The experiment in a line: Calcein AM cytotoxicity assay, K-562. In kind it is cell-based. The following applies: 72 hours incubation. In a few lines: as §1
The next assay relates to MCF-7 (breast carcinoma). The experiment in a line: Calcein AM cytotoxicity assay, MCF7. In kind it is cell-based. Conditions: 72 hours incubation. The method, boiled down: as §1
In assay [3] the test system is Normal human fibroblasts BJ. Briefly: Calcein AM cytotoxicity assay, BJ. In kind it is cell-based. Conditions: 72 hours incubation. In a few lines: as §1
The test system of assay [4] is G-361 (human malignant melanoma). The experiment in a line: Calcein AM cytotoxicity assay, G-361. In kind it is cell-based. Conditions: 72 hours incubation. From the text:
Because toxic compounds negatively influence metabolic processes in cells, many standard cytotoxicity assays are based on measurement of metabolisation rate of various artificial substrates. Resulting product is then quantified e.g. by means of spectrometry. The assays can be easily modified for use in 96-well plates. For evaluation of cytotoxic effect of the novel substituted 9-substituted cytokinin derivatives of this invention, a microtiter assay based on quantification of metabolisation of Calcein AM was used. The assay is widely used in drug screening programs and in chemosensitivity testing. In the living cells, Calcein AM is enzymatically hydrolysed and accumulation of resulting calcein is manifested by green fluorescence.
In the routine screening the following cell lines have been used: CEM (T-lymphoblastoid leukemia), HL-60 (promyelocytic leukemia), K-562 (human erythroleukemia), MCF-7 (breast carcinoma), HOS (human osteogenic sarcoma), and G-361 (human malignant melanoma). Normal human fibroblasts BJ were used as a control for routine screening of the compounds. The cells were kept in Nunc/Corning 80 cm^2 plastic bottles and grown in cell culture medium (DMEM containing 5 g/l glucose, 2 mM glutamine, 100 U/ml penicilline, 100 μg/ml streptomycine, 10% fetal bovine serum and sodium hydrogencarbonate), the compounds were prepared according to the procedure of the present invention.
The cell suspensions were prepared and diluted according to the particular cell type and the expected target cell density (2.500-30.000 cells per well based on cell growth characteristics) and pippetted (80 μl) into 96-well plates. Inoculates were allowed a pre-incubation period of 24 hours at 37° C. and 5% CO2 for stabilisation. Tested compound was added in total volume of 20 μl of water at time zero. Usually, test compound was evaluated at six 3-fold dilutions. In routine testing, the highest concentration tested was 166.7 μM. All drug concentrations were tested in triplicates. Incubations of cells with the test compounds lasted for 72 hours at 37° C., in 5% CO2 atmosphere and 100% humidity. At the end of incubation period Calcein AM in PBS was added into final concentration of 1 μg/ml. After another 1 hour of incubation fluorescence (FD) was measured with the Labsystem FIA Reader Fluoroscan Ascent (Microsystems). Tumor cell survival (TCS) was estimated using the following equation: […]=(FDdrug exposed well/FDcontrol well)×100%. The GI50 value, the drug concentration causing 50% reduction of esterase activity, was calculated from the obtained dose response curves (FIG. 1).
Cytoxicity of novel compounds was tested on panel of cell lines of different histogenetic and species origin (Table 3). […] The effective novel derivatives killed tumour cells in concentrations close to 0.1-50 μM.

Assay [5] deals with CEM (T-lymphoblastoid leukemia). Briefly: Calcein AM cytotoxicity assay, CEM. Conditions: 72 hours incubation, Calcein AM. In kind it is cell-based. The method, boiled down:
as §1

Assay [6] has as its system HL-60 (promyelocytic leukemia). Briefly: Calcein AM cytotoxicity assay, HL60. In kind it is cell-based, human. The following applies: 72 hours incubation. In a few lines: as §1
A further assay deals with Human lymphocytes. Briefly: Immunosuppressive activity, 3H-thymidine incorporation in concanavalin A activated lymphocytes. The following applies: 72 hours, [3H]-TdR incorporation, read-out: Human lymphocytes ED50. The assay is classed as cell-based. From the text: One of the most important parameters of specific cellular immunity is the proliferative response of lymphocytes to antigens or polyclonal mitogens. The majority of normal mammalian peripheral lymphocytes comprise resting cells. Antigens or nonspecific polyclonal mitogens have the capacity to activate lymphoid cells and this is accompanied by dramatic changes of intracellular metabolism (mitochondrial activity, protein synthesis, nucleic acids synthesis, formation of blastic cells and cellular proliferation). […] Variety of in vitro assays was developed to measure proliferative response of lymphocytes. The most commonly used is ^3H-thymidine incorporation method.
During cell proliferation, DNA has to be replicated before the cell is divided into two daughter cells. This close association between cell doublings and DNA synthesis is very attractive for assessing cell proliferation. If labelled DNA precursors are added to the cell culture, cells that are about to divide incorporate the labelled nucleotide into their DNA. Traditionally, those assays usually involve the use of radiolabelled nucleosides, particularly tritiated thymidine ([^3H]-TdR). The amount of [^3H]-TdR incorporated into the cellular DNA is quantified by liquid scintillation counting.
Human heparinized peripheral blood was obtained from healthy volunteers by cubital vein punction. The blood was diluted in PBS (1:3) and mononuclear cells were separated by centrifugation in Ficoll-Hypaque density gradient (Pharmacia, 1.077 g/ml) at 2200 rpm for 30 minutes. Following centrifugation, lymphocytes were washed in PBS and resuspended in cell culture medium (RMPI 1640, 2 mM glutamine, 100 U/ml penicillin, 100 μg/ml streptomycin, 10% fetal calf serum and sodium bicarbonate).
The cells were diluted at target density of 1.100.000 cells/ml and were added by pipette (180 μl) into 96-well microtiter plates. Four-fold dilutions of the intended test concentration were added at time zero in 20 μl aliquots to the microtiter plate wells. Usually, test compound was evaluated at six 4-fold dilutions. In routine testing, the highest well concentration was 266.7 μM. All drug concentrations were examined in duplicates. All wells with exception of unstimulated controls were activated with 50 μl of concanavalin A (25 μg/ml). Incubations of cells with test compounds lasted for 72 hours at 37° C., in 5% CO2 atmosphere and 100% humidity. At the end of incubation period, the cells were assayed by using the [^3H]-TdR:
Cell cultures were incubated with 0.5 μCi (20 μl of stock solution 500 μCi/ml) per well for 6 hours at 37° C. and 5% CO2. The automated cell harvester was used to lyse cells in water and adsorb the DNA onto glass-fiber filters in the format of microtiter plate. The DNA incorporated [^3H]-TdR was retained on the filter while unincorporated material passes through. The filters were dried at room temperature overnight, sealed into a sample bag with 10-12 ml of scintillant. The amount of [^3H]-TdR present in each filter (in cpm) was determined by scintillation counting in a Betaplate liquid scintillation counter. The effective dose of immunosuppressant (ED) was calculated using the following equation: ED=(CCPMdrug exposed well/mean CCPMcontrol wells)×100%. The ED50 value, the drug concentration inhibiting proliferation of 50% of lymphocytes, was calculated from the obtained dose response curves.
To evaluate immunosuppressive activity of substituted adenines, their ability to inhibit polyclonal mitogen induced proliferation of normal human lymphocytes was analyzed (Table 4). […] Effective immunosuppressive dose of new derivatives under in vitro conditions was close to 10-40 μM.
(Dividing cells build labelled thymidine or BrdU into new DNA.)

Assay [7] has as its system cytokinin-dependent tobacco callus Nicotiana tabacum L. cv. Wisconsin 38. Briefly: Growth of cytokinin-dependent tobacco callus. The assay is classed as cell-based.
The subject of another assay is p21^WAF-1. Briefly: Induction of p21WAF-1 expression in MCF-7 cells (immunoblot). The assay is classed as cell-based. How it is done: MCF-7 cells cultured at 37° C. in 5% CO2 atmosphere in DMEM medium supplemented with 10% foetal calf serum were treated with compound 28 concentration ranges of 0-100 μM. Compound 28 was added into the medium from the 100 mM stock solution in DMSO. Cells were harvested 12 hours after incubation with compound 28, centrifuged (1000 rpm, 4° C., 5 min), washed twice by ice-cold PBS and re-centrifuged. These washed cells were then lysed by 1×CSB (loading buffer for SDS-PAGE, i.e. electrophoresis of proteins in polyacrylamide gel containing SDS). Cell lysate proteins were separated by SDS-PAGE and transferred onto a nitrocelulose (NC) membrane. NC membrane was blocked by 5% skimmed milk, 0.1% Tween 20 in PBS. Protein level of p21^WAF-1 and actin (as a loaded protein volume control) were detected immunochemically using commercially available specific monoclonal antibodies anti-p21^WAF-1 (Ab-1, Calbiochem) and anti-Actin (Clone AC-40, Sigma-Aldrich). The primary antibodies bind to target proteins were detected using rabbit secondary peroxidase-labeled antibody (RAM-Px, DAKO), followed by chemiluminiscence (ECL, Amersham-Pharmacia).
MCF-7 cells were incubated in the presence of 1 μmol of compound 28. In various time intervals from the moment of administration of 28 the cells were harvested and lyzed. […]
A general note: Immunoblotting shows a protein as a band on a membrane.

For `O=P(O)(O)OC[C@H]1O[C@@H](n2cnc3c(NCc4cccc(F)c4)ncnc32)[C@H](O)[C@@H]1O` [Compound 2, 6-(3-fluorobenzylamino)purine riboside-5′-monophosphate], the GI50 (usually the concentration that inhibits growth by half) was greater than 167 µM in assay [1]; 7 µM in assay [2]; 16.6 µM in the assay with MCF-7 (breast carcinoma); greater than 167 µM in assay [3]; 15.7 µM in [4]; 4 µM in [5]. Moreover, in [6], the GI50 is 0.92 µM. The EC50 with Human lymphocytes was 11.5 µM. Further, in assay [7] (at concentration with highest activity, relative to control cytokinin), the “Activity (%) [10^−5 mol · l^−1 KR = 100%]” value turned out to be 103 ± 6%. Also, the “Concentration with highest activity” value in assay [7] (tobacco callus fresh weight after four weeks) is on record as 10^−5 mol · l^−1.
In the case of `COc1cccc(CNc2ncnc3c2ncn3[C@@H]2O[C@H](COP(=O)(O)O)[C@@H](O)[C@H]2O)c1O` [Compound 28, 6-(2-hydroxy-3-methoxybenzylamino)purine riboside-5′-monophosphate], the GI50 was 24.1 µM in assay [1]; 2.1 µM in assay [2]; 30.4 µM in the assay with MCF-7 (breast carcinoma); 69.7 µM in assay [3]; 27.9 µM in assay [4]; 0.3 µM in assay [5]. In assay [6], the GI50 is 0.5 µM. The EC50 with Human lymphocytes amounted to 1.2 µM. The “time of effective induction of p21^WAF-1 after addition” value in the assay with p21^WAF-1 (1 μmol concentration) lay in the range of 6 to 24 h. Further, the “p21^WAF-1 protein induction in relation to concentration” value with p21^WAF-1 (12 hours, 0-100 μM tested, effective in range of units imol per liter) is “efficient p21^WAF-1 protein induction is achieved”.
With `O=P(O)(O)OC[C@H]1O[C@@H](n2cnc3c(NCc4cccc(O)c4)ncnc32)[C@H](O)[C@@H]1O` [Compound 22, 6-(3-hydroxybenzylamino)purine riboside-5′-monophosphate], the GI50 in [1] is greater than 167 µM; in assay [2], greater than 167 µM; in the assay on MCF-7 (breast carcinoma) it was greater than 167 µM; in assay [3], greater than 167 µM; in assay [4] it was greater than 167 µM; in assay [5] it was 51.9 µM. The GI50 in assay [6] was 23.7 µM. The EC50 in the assay on Human lymphocytes stood at 12.8 µM.

The record behind these values is patent US9073961B2, “Substitution derivatives of N6 -benzyladenosine-5′-monophosphate, methods of preparation thereof, use thereof as medicaments, and therapeutic preparations containing these compounds” (UNIVERZITA PALACKEHO V OLOMOUCI, priority 2010, dated 2015).
